Measurements taken from patent US12558353B2 (CELLTAXIS, LLC, priority 2018, dated 2026).
“Also recorded” adds a separate entry of the source.

Experiments:
[1] = system: adult patients with cystic fibrosis; assay: EMPIRE-CF: absolute change from baseline in FEV1pp (spirometry); type: in vivo, human; details: 48 weeks of therapy
Description: The primary endpoints were absolute change from baseline in FEV1pp and safety outcomes. Secondary endpoints included rate of pulmonary exacerbations and time to first pulmonary exacerbation, and the effects on biomarkers of lung and systemic inflammation. Analyses are described in section entitled “Analysis.”
Spirometry data were recorded at screening and baseline; all other spirometric measurements at subsequent visits are ideally recorded within ±1 h of the baseline visit measurement. All tests met American Thoracic Society/European Respiratory Society criteria for quality (acceptability, reproducibility, and end of test criteria) [Miller et al., 2005]. To ensure consistency of measurement, spirometry measurements were ideally performed by the same researcher and the patient coached to use maximum effort at every attempt. Patients were able to take all of their concomitant medications according to their regular schedule; however, they were to refrain from using short-acting bronchodilators within 4 h of the scheduled spirometry time, and long-acting bronchodilators within 12-24 h of the scheduled spirometry time.
The primary analysis was based upon an analysis of variance (ANOVA) in which the average of the Week 48 change from baseline in FEV1pp for the two acebilustat doses was compared to that in the placebo group. […]

[2] = system: adult patients with cystic fibrosis; assay: EMPIRE-CF: safety and tolerability; type: in vivo, human; details: 48 weeks
Excerpt: Treatment-emergent adverse events (TEAEs), including serious adverse events, were collected at each visit, and summarized by MEDRA system organ class and preferred term, severity, and relatedness to the study drug. An independent data monitoring committee monitored the safety and study conduct at approximately 8-week intervals.

[3] = system: sputum neutrophils, sputum elastase, C-reactive protein, sputum LTB4; details: cited from earlier work
[4] = Phase I studies; cited from earlier work
[5] = once-daily, adult patients with CF

O=C(O)c1ccc(CN2C[C@@H]3C[C@H]2CN3Cc2ccc(Oc3ccc(-c4ncco4)cc3)cc2)cc1 [acebilustat, 4-{[(1S,4S)-5-({4-[4-oxazol-2-yl-phenoxy]phenyl}methyl)-2,5-diazabicyclo[2.2.1]heptan-2-yl]methyl}benzoic acid]
absolute change in FEV1pp from baseline at Week 48 versus placebo (primary endpoint) [1]: not different from placebo; also recorded: did not separate from placebo; also recorded: No difference between acebilustat and placebo
severity of the majority of adverse events [2]: mild or moderate
tolerability and risk of infection [2]: safe and well tolerated
tolerability and risk of infection ([2]; listed as Acebilustat): well tolerated with no increased risk of infection
C-reactive protein ([3]; acebilustat treated groups): Numerical reductions
reduction of sputum elastase levels [3, 5]: up to 58%
reduction of sputum neutrophil levels [3, 5]: up to 65%
sputum LTB4 levels, acebilustat- vs placebo-treated patients ([3]; patients with CF): decreased significantly
drug-related serious adverse events [4]: no drug-related serious AEs
tolerability [4]: well tolerated
